Test results reported in US20230340417A1, “DEFINED MATRIX FOR THE DIFFERENTIATION OF ISLETS” (Washington University, priority 2022, published 2023).
“Also recorded” adds a separate entry of the source.

B1: vitronectin: extracellular matrix protein tested as plate coating for differentiation (protein, UniProt P04004 20-478, looked up)
Vitronectin: DQESCKGRCTEGFNVDKKCQCDELCSYYQSCCTDYTAECKPQVTRGDVFTMPEDEYTVYDDGEEKNNATVHEQVGGPSLTSDLQAQSKGNPEQTPVLKPEEEAPAPEVGASKPEGIDSRPETLHPGRPQPPAEEELCSGKPFDAFTDLKNGSLFAFRGQYCYELDEKAVRPGYPKLIRDVWGIEGPIDAAFTRINCQGKTYLFKGSQYWRFEDGVLDPDYPRNISDGFDGIPDNVDAALALPAHSYSGRERVYFFKGKQYWEYQFQHQPSQEECEGSSLSAVFEHFAMMQRDSWEDIFELLFWGRTSAGTRQPQFISRDWHGVPGQVDAAMAGRIYISGMAPRPSLAKKQRFRHRNRKGYRSQRGHSRGRNQNSRRPSRATWLSLFSSEESNLGANNYDDYRMDWLVPATCEPIQSVFFFSGDKYYRVNLRTRRVDTVDPPYPRSIAQYWLGCPAPGHL

Assays:
[1] = test system: human pluripotent stem cells; assay: SC-β cell differentiation on different extracellular matrix proteins; assay type: cell-based; details: for outcome of differentiation of stem cells to SC-β cells: cells plated on the ECM when seeding the differentiation
Procedure: (§1) Experiment goal: test if our SC-β cell differentiation method works with different extracellular matrix proteins. Stem cells were propagated on Matrigel as normal. Cells were plated on the different ECMs when seeding the differentiations. For the combinations of laminin 111 and collagen IV, the total protein concentration was kept the same. The ratio of these was changed from 3:1, 1:1, and 1:3. Some of the ECMs induced the cells to form clusters on the plate in stage 6, so some clusters were scrapped off instead of aggregating them for comparison. The differentiation protocol utilized was previously published (Hogrebe et al Nature Biotechnology 2020; Hogrebe et al Nature Protocols 2021; and WO 2019/222487) and modified to include different ECM proteins.

stem cells = assay: Adhesion of cells to plates coated with different extracellular matrix proteins during differentiation; assay type: cell-based, human; details: for adherence of seeding stem cells to the ECM to start differentiation: FIG. 11; for attachment of cells to the plate in early differentiation stages: stage 1 and 2, ECM protein used alone; for time at which cells came off the plate: stage/day of protocol (s = stage, d = day)
Procedure: as §1

Molecule	outcome of differentiation of stem cells to SC-β cells [1]	adherence of seeding stem cells to the ECM to start differentiation (stem cells)	attachment of cells to the plate in early differentiation stages (stem cells)	adhesion of endocrine cells to the plate (stem cells; stage 6)	time at which cells came off the plate (stem cells)	attachment of cells to the plate in early differentiation stages (stem cells; listed as collagen I)	cell types obtained ([1]; differentiations done on vitronectin only, FIG. 12)
fibronectin	failed	do not effectively adhere	–	–	–	–	–
collagen IV: extracellular matrix protein tested as plate coating, alone or combined with laminin 111	–	–	detached completely; also recorded: monolayer of stem cells detaching from the plate	makes the endocrine cells stick to the plate	started coming off on s1d3	–	–
collagen 1: extracellular matrix protein tested as plate coating for differentiation	–	weren't as adhesive	detached completely	–	came off on s2d1	monolayer of stem cells detaching from the plate	–
B1	failed	do effectively adhere	–	–	–	–	a lot of off-target cell types and no endocrine cells
